Read-outs that look alike come from different tables or passages of the source.

The source of these data is patent US6552235B2, “Process for the preparation of cyclohexanol” (Asahi Kasei Kabushiki Kaisha, priority 1999, dated 2003).

Data set [1] can be described thus: Liquid-liquid distribution coefficient of cyclohexene at 120° C. and solvent effect index. The class given is physicochemical. The note with it: for Solvent effect index: distribution coefficient in solvent-free system/in solvent-containing system; for Distribution coefficient of cyclohexene: molar fraction in oil phase/aqueous phase, cyclohexene/cyclohexanol/organic solvent/water 56.7/13.3/30/100 by weight. The method, then:
The organic solvent used in the present invention has a solvent effect index (defined below) of not less than 1.5. The solvent effect index in the present invention is defined to be a ratio of a distribution coefficient of cyclohexene in the absence of solvent at 120° C. and a distribution coefficient of cyclohexene in a solvent-containing system at 120° C. (distribution coefficient of cyclohexene in the absence of solvent/distribution coefficient of cyclohexene in a solvent-containing system), and it indicates an effect to make predominate the distribution of cyclohexene into an aqueous solution due to the presence of the organic solvent.
Detailedly, the solvent effect index in the present invention is obtained in the following manner. Cyclohexene/cyclohexanol/organic solvent/water are charged at a weight ratio of 56.7/13.3/30/100, and the distribution coefficient of cyclohexene (molar fraction of cyclohexene in oil phase/molar fraction of cyclohexene in aqueous phase) is obtained from the liquid composition of both phases of the oil phase and the aqueous phase in an equilibrium state kept at 120° C. The ratio of the resulting distribution coefficient of cyclohexene and the distribution coefficient of cyclohexene in a solvent-free system (measured at 120° C. by charging cyclohexene/cyclohexanol/water at a weight ratio of 56.7/13.3/100), namely, the ratio of distribution coefficient in solvent-free system/distribution coefficient in solvent-containing system, is the solvent effect index in the present invention.
Here, the distribution coefficient of cyclohexene is measured by the following method. That is, an oil and water at the above weight ratio are charged in a pressure container under a nitrogen pressure, and sufficiently stirred and mixed at a rising temperature of 120° C., followed by reducing the stirring speed and leaving at rest for a time long enough to reach an equilibrium state. Thereafter, each of the oil phase and the aqueous phase is sampled in a solvent such as 1,4-dioxane, and the compositions of both the oil phase and the aqueous phase are obtained from analysis by gas chromatography and a Karl Fischer moisture meter. Thus, the distribution coefficient of cyclohexene is measured.

Data set [2] is described as follows: Solvent conversion rate in batch-wise hydration reaction of cyclohexene (H-ZSM-5 zeolite-A). The class given is physicochemical. The note with it: 120° C.; for Solvent convertion rate: H-ZSM-5-A, 20 g solvent. On the procedure:
The organic solvent used as a reaction solvent in the method of the present invention has a conversion rate of not more than 3% under the hydration reaction conditions of cyclohexene. The conversion rate of the organic solvent in the present invention is a conversion rate in the reaction of the organic solvent per se or the organic solvent with cyclohexene or cyclohexanol per 1 hour of batch reaction at the reaction temperature at which the hydration reaction of cyclohexene is carried out. In industrial working of the present invention, the solvent used for the reaction is separated from the product cyclohexanol and circulated for reuse.
30 g of the resulting H-ZSM-5 zeolite-A catalyst and 81 g of water were charged in a glass autoclave A and heated to 120° C. with stirring under application of a nitrogen pressure of 0.5 MPa. Separately, 61 g of cyclohexene and 20 g of isophorone were charged in a glass autoclave B and heated to 120° C. under application of a nitrogen pressure of 0.6 MPa. Thereafter, the cyclohexene/isophorone mixed liquid was sent under pressure from the glass autoclave B to the glass autoclave A, and the reaction was started. After the reaction for 1 hour, the stirring was stopped, and the oil phase was sampled and analyzed by gas chromatography. At the sampling, the reaction mixture separated to two phases of oil phase and aqueous phase immediately after stopping of stirring. Yield and selectivity of cyclohexanol were as follows.
The hydration reaction of cyclohexene was carried out in the same manner as in Example 1, except that ethylene glycol monophenyl ether, phenethyl alcohol and 3,3,5-trimethylcyclohexanone were respectively used as the reaction solvents. The results of the reactions are shown in Table 1, and characteristics of the organic solvents used in this Example are shown in Table 2.
The reaction was carried out in the same manner as in Example 1, except that benzyl alcohol was used as the solvent. Yield of cyclohexanol after each reaction time was as follows.

For data set [3] the following is noted: cited from earlier work.
Data set [4] can be described thus: Solvent conversion rate in continuous fixed-bed flowing hydration reaction of cyclohexene. The class given is physicochemical. The note with it: fixed-bed flow; for Solvent conversion rate: 30 wt % solvent, 124-134° C., 2 MPa. On the procedure:
A continuous fixed-bed flowing reaction test of a cyclohexene hydration reaction was conducted under the following conditions using ethylene glycol monophenyl ether (EGMPE) as a reaction solvent. As a reaction apparatus, a stainless steel reaction vessel of 26.5 mm in internal diameter provided with a heating medium jacket was used. In the upper part of the reaction vessel, there were provided feed openings for water and oil, and in the lower part of the reaction vessel, oil and water in the mixed state were led to a reaction mixture storage tank through a pressure regulating valve, and oil and water were separated from each other in the reaction mixture storage tank. ZSM-5 zeolite (silica/alumina molar ratio=50) manufactured by Engelhard Co., Ltd. with addition of 20 wt % of an alumina binder was extrusion molded to a size of 1/16 inch in external diameter and 5 mm in length, and this was used as the catalyst. The height of the catalyst layer was 240 mm. The continuous reaction was carried out by an oil-water falling parallel flow sealing reaction method under the following conditions.
The oil phase discharged into the reaction mixture storage tank was analyzed by gas chromatography to obtain the results of the reaction. At the time of starting of the reaction, only cyclohexene was fed, and after a lapse of 20 hours from the starting of the reaction, the starting material was changed to a mixed liquid of cyclohexene/ethylene glycol monophenyl ether=70/30 (weight ratio), and thereafter the reaction was continued for 150 hours.

The conditions of data set [5]: phenol-containing system, 120° C.; solvent-free system 3818; cited from earlier work.

`OCCc1ccccc1` [Phenethyl alcohol]: in data set [1], the Solvent effect index is given as 2.24 and the “Distribution coefficient of cyclohexene” value is given as 1846. The Solvent convertion rate in data set [2] (1 hour) was 0.35%. Moreover, the “Solubility in water (25° C.)” value in data set [3] is listed as 2.00 g/100 ml.

Take `CC1CC(=O)CC(C)(C)C1` (centres unmarked) [3,3,5-Trimethylcyclohexanone]: in data set [1], the Solvent effect index turned out to be 2.14 and the “Distribution coefficient of cyclohexene” value is reported as 1929. This compound also yielded a Solvent convertion rate in data set [2] (1 hour) of 0.00%. Further, the “Solubility in water (25° C.)” value in data set [3] is on record as 0.80 g/100 ml.

Take `OCc1ccccc1` [benzyl alcohol, reference compound]: the “conversion rate of the reaction solvent to dibenzyl ether” value in data set [2] (H-ZSM-5 zeolite-A, after 1 hour) worked out at 11.4%; in data set [2] (H-ZSM-5 zeolite-A, after 2 hours), 16.0%.

Turning to `OCCOc1ccccc1` [Ethylene glycol monophenyl ether, ethylene glycol monophenyl ether], the Solvent effect index in data set [1] amounted to 2.46. Besides, in data set [1], the “Distribution coefficient of cyclohexene” value stood at 1681. The same compound gave a Solvent convertion rate in data set [2] (1 hour) of 0.70%. Besides, the Solvent conversion rate in data set [4] (reaction time 25 Hr) is listed as 0.84%; in data set [4] (reaction time 80 Hr), 0.63%; in data set [4] (reaction time 150 Hr), 0.42%. Moreover, in data set [4] (under the hydration reaction conditions), the “conversion rate to ethylene glycol cyclohexylphenyl ether” value is given as “less than 1%”. The “Solubility in water (25° C.)” value in data set [3] is listed as 2.70 g/100 ml.

On to `O=C1CCCCC1` [cyclohexanone, reference compound], for which, in data set [3], the solubility in water is on record as 8.7%.

In the case of `CC1=CC(=O)CC(C)(C)C1` [Isophorone], in data set [1], the Solvent effect index is reported as 2.19 and the “Distribution coefficient of cyclohexene” value turned out to be 1884. The Solvent convertion rate in data set [2] (1 hour) is listed as 0.00%. Moreover, the “change of the solvent in the hydration reaction” value in data set [2] (H-ZSM-5 zeolite-A, 1 hour) is on record as “showed no change”. In data set [3] (listed as IPN), the “Solubility in water (25° C.)” value is listed as 1.20 g/100 ml. The “Solubility in water (25° C.)” value in data set [3] was 1.2 g/100 ml.

Regarding `Oc1ccccc1` [phenol], in data set [5], the “cyclohexene distribution coefficient (concentration in oil phase mol %/aqueous phase mol %)” value is 680.
